Values after ≈ are worked out from the molar mass of the structure shown. Where two headings read alike, the source gives them in different places.
How the values were obtained:
Bacillus cereus = experiment: Antimicrobial activity, paper disc method; format: cell-based; settings: 0.02 ml of 300 μg/ml solution, trypticase-soy agar
Protocol: (§1) With trypticase-soy agar (BBL) as an assay medium, the inhibitory concentrations against the microorganisms named below were investigated by the paper disc method. Thus, filter-paper discs (Toyo Seisakusho, thin-type, 8 mm dia.) each impregnated with 0.02 ml of a 300 μg/ml solution of C-15003 P-3, P-3' or P-4 were placed on plates respectively inoculated with the microorganisms named below to investigate the minimal inhibitory concentrations.

Bacillus subtilis = experiment: Antimicrobial activity, paper disc method; format: cell-based; settings: 0.02 ml of 300 μg/ml solution, trypticase-soy agar
Protocol: as §1

Escherichia coli = experiment: Antimicrobial activity, paper disc method; format: cell-based; settings: 0.02 ml of 300 μg/ml solution, trypticase-soy agar
Protocol: as §1

Klebsiella pneumoniae = experiment: Antimicrobial activity, paper disc method; format: cell-based; settings: 0.02 ml of 300 μg/ml solution, trypticase-soy agar
Protocol: as §1

Mycobacterium avium = experiment: Antimicrobial activity, paper disc method; format: cell-based; settings: 0.02 ml of 300 μg/ml solution, trypticase-soy agar
Protocol: as §1

Proteus mirabilis = experiment: Antimicrobial activity, paper disc method; format: cell-based; settings: 0.02 ml of 300 μg/ml solution, trypticase-soy agar
Protocol: as §1

Proteus vulgaris = experiment: Antimicrobial activity, paper disc method; format: cell-based; settings: 0.02 ml of 300 μg/ml solution, trypticase-soy agar
Protocol: as §1

Pseudomonas aeruginosa = experiment: Antimicrobial activity, paper disc method; format: cell-based; settings: 0.02 ml of 300 μg/ml solution, trypticase-soy agar
Protocol: as §1

Serratia marcescens = experiment: Antimicrobial activity, paper disc method; format: cell-based; settings: 0.02 ml of 300 μg/ml solution, trypticase-soy agar
Protocol: as §1

Staphylococcus aureus = experiment: Antimicrobial activity, paper disc method; format: cell-based; settings: 0.02 ml of 300 μg/ml solution, trypticase-soy agar
Protocol: as §1

Talaromyces avellaneus = experiment: Growth inhibition on agar plates; format: cell-based; settings: Hamigera avellanea, pH 7.0, read-out: minimal inhibitory concentration
Protocol: (§2) On the other hand, with agar plates containing the assay medium [3.5 g disodium hydrogen phosphate, 0.5 g monopotassium dihydrogen phosphate, 5 g yeast extract (Difco), 10 g glucose, 15 g agar, 1000 ml distilled water, pH 7.0], the growth inhibition against Talaromyces avellaneus was assayed. In this assay, the minimal inhibitory concentrations were 3 μg/ml for C-15003 P-3 and P-3', and 1.5 μg/ml for C-15003 P-4. Furthermore, the wild strain of Tetrahymena pyriformis W as an assay organism was cultivated on an assay medium [composed of 20 g Proteose-peptone (Difco), 1 g yeast extract, 2 g glucose, 1000 ml distilled water and 10 ml 1 M-phosphate buffer pH 7.0] at 28° C. for 44 to 48 hours and the growth inhibitory activity of the antibiotic compounds against this particular microorganism was determined by the serial dilution method. Growth inhibition occurred at 1 μg/ml for C-15003 P-3 and P-3', and at 0.5 μg/ml for C-15003 P-4.

Tetrahymena pyriformis W = experiment: Growth inhibitory activity, serial dilution method; format: cell-based; settings: 28° C., 44 to 48 hours, pH 7.0, read-out: growth inhibition concentration
Protocol: The potency of the antibiotic was assayed with Tetrahymena pyriformis W as an assay organism.
as §2

P388 leukemia = experiment: Antitumour activity, P388 leukemia in mice; format: in vivo, mouse; settings: 0.00625 mg/kg/day, intraperitoneally for 9 consecutive days; 1×10^6 cells/animal, intraperitoneally transplanted
[1] = Acute toxicity test in mice; settings: mouse, in vivo, ip, intraperitoneal injection
[2] = in chloroform, ethyl acetate, acetone, ethanol, methanol, pyridine, tetrahydrofuran & dimethylsulfoxide

Compound: COc1cc2cc(c1Cl)N(C)C(=O)CC(OC(=O)C(C)C)C1(C)OC1C(C)C1CC(O)(NC(=O)O1)C(OC)C=CC=C(C)C2 (stereo not shown) [C-15003 P-3]
- antimicrobial activity (minimal inhibitory concentration) (Bacillus cereus): no activity
- antimicrobial activity (minimal inhibitory concentration) (Bacillus subtilis): no activity
- antimicrobial activity (minimal inhibitory concentration) (Escherichia coli): no activity
- antimicrobial activity (minimal inhibitory concentration) (Klebsiella pneumoniae): no activity
- antimicrobial activity (minimal inhibitory concentration) (Mycobacterium avium): no activity
- antimicrobial activity (minimal inhibitory concentration) (Proteus mirabilis): no activity
- antimicrobial activity (minimal inhibitory concentration) (Proteus vulgaris): no activity
- antimicrobial activity (minimal inhibitory concentration) (Pseudomonas aeruginosa): no activity
- antimicrobial activity (minimal inhibitory concentration) (Serratia marcescens): no activity
- antimicrobial activity (minimal inhibitory concentration) (Staphylococcus aureus): no activity
- MIC (Talaromyces avellaneus): 3 mg/L (≈ 4.72 µM)
- MIC (Tetrahymena pyriformis W): 1 mg/L (≈ 1.57 µM)
- life span-extending ratio (P388 leukemia): 200%
- LD50 [1]: > 0.313 mg/kg
- Solubility (in benzene & ether): Sparingly soluble
- Solubility [2]: Soluble
- Solubility (in petr. ether, hexane & water): Insoluble

Compound: COc1cc2cc(c1Cl)N(C)C(=O)CC(OC(=O)CC(C)C)C1(C)OC1C(C)C1CC(O)(NC(=O)O1)C(OC)C=CC=C(C)C2 (stereo not shown) [C-15003 P-4]
- antimicrobial activity (minimal inhibitory concentration) (Bacillus cereus): no activity
- antimicrobial activity (minimal inhibitory concentration) (Bacillus subtilis): no activity
- antimicrobial activity (minimal inhibitory concentration) (Escherichia coli): no activity
- antimicrobial activity (minimal inhibitory concentration) (Klebsiella pneumoniae): no activity
- antimicrobial activity (minimal inhibitory concentration) (Mycobacterium avium): no activity
- antimicrobial activity (minimal inhibitory concentration) (Proteus mirabilis): no activity
- antimicrobial activity (minimal inhibitory concentration) (Proteus vulgaris): no activity
- antimicrobial activity (minimal inhibitory concentration) (Pseudomonas aeruginosa): no activity
- antimicrobial activity (minimal inhibitory concentration) (Serratia marcescens): no activity
- antimicrobial activity (minimal inhibitory concentration) (Staphylococcus aureus): no activity
- MIC (Talaromyces avellaneus): 1.5 mg/L (≈ 2.31 µM)
- MIC (Tetrahymena pyriformis W): 0.5 mg/L (≈ 0.77 µM)
- life span-extending ratio (P388 leukemia): 200%
- LD50 [1]: > 0.313 mg/kg
- Solubility (in benzene & ether): Sparingly soluble
- Solubility [2]: Soluble
- Solubility (in petr. ether, hexane & water): Insoluble
